Data from patent publication US10532075B2, “Use of a particular extract of propolis for combating the side effects of chemotherapy” (POLLENERGIE, priority 2014, dated 2020).

Legend:
[1] = in-vivo side effects of chemotherapy: change in weight of the animals
Text: (§1) Wistar rats of approximately 200 g were used during this in-vivo experiment, at a rate of 8 animals per group. […] The animals are sacrificed 21 days after the injection of the chemotherapy agent. The weight and the different parameters of the blood formula will be tracked in these animals on days D+1, D+6 and D+14 and D+21 post-chemotherapy injection. The contents of endogenic antioxidants (glutathione=GSH) and the hepatocytic lipid peroxidation (MDA) levels will be evaluated on D+21.

[2] = tested on: white blood cells; assay: in-vivo side effects of chemotherapy: change in white blood cells
Text: as §1

[3] = tested on: red blood cells; assay: in-vivo side effects of chemotherapy: change in red blood cells
Text: as §1

[4] = tested on: plasma MDA; assay: in-vivo side effects of chemotherapy: plasma MDA
Text: as §1
(§2) The chemotherapy agents also have an impact on the primary intracellular antioxidant: glutathione (GSH) and on oxidative damage through the formation of diene conjugates, which is a reflection of the lipid peroxidation of the cellular membranes (the MDA) on the plasmatic level. These two measurements are complementary since normally a correct level of GSH makes it possible to maintain a relatively low level of MDA.

[5] = tested on: plasmatic glutathione (GSH); assay: in-vivo side effects of chemotherapy: plasmatic glutathione
Text: as §1, §2

[6] = tested on: plasmatic creatinine; assay: in-vivo side effects of chemotherapy: plasmatic creatinine
Text: as §1

[7] = tested on: Primary hepatocytes of rats; assay: reversion of chemotherapy agent toxicity: hepatocyte cytolysis after propolis pretreatment, then tamoxifen; assay type: cell-based; settings: tamoxifen alone
Procedure: Primary hepatocytes of rats were sampled and inoculated into a 96-well plate. 24 hours after the inoculation, the hepatocytes were treated with different doses of propolis (Example 1) for 24 hours.
The percentage of hepatic cells that are cytolyzed after a pretreatment with different concentrations of propolis and then subjected to a cytotoxic concentration of tamoxifen (25 μM) was evaluated and presented in the table below: […]

[8] = chemotherapy agent alone, D + 1 post-injection
[9] = chemotherapy agent alone, D + 6 post-injection
[10] = chemotherapy agent alone, D + 14 post-injection
[11] = chemotherapy agent alone, D + 21 post-injection
[12] = chemotherapy agent alone, D − 5 (before treatment)
[13] = chemotherapy agent alone, 21st day post-injection
[14] = chemotherapy agent alone, 21st day

SMILES: O=P1(N(CCCl)CCCl)NCCCO1 (stereo not shown) [Cyclophosphamide, cyclophosphamide]
- weight: Variation between D + 1 and D + 21 ([1]; chemotherapy agent alone): −14.9
- weight of the animals [1, 8]: 167.2
- weight of the animals [1, 9]: 157.7
- weight of the animals [1, 10]: 164
- weight of the animals [1, 11]: 152.3
- weight of the animals [1, 12]: 160.4
- white blood cells: Variation between D − 5 and D + 21 ([2]; chemotherapy agent alone): −49%
- white blood cells [2, 8]: 3.33
- white blood cells [2, 9]: 2.96
- white blood cells [2, 10]: 10.20
- white blood cells [2, 11]: 3.19
- white blood cells [2, 12]: 6.30
- red blood cells: Variation between D + 1 and D + 21 ([3]; chemotherapy agent alone): −46%
- reduction in red blood cells [3, 13]: 45%
- red blood cells [3, 8]: 5.94
- red blood cells [3, 9]: 4.23
- red blood cells [3, 10]: 3.80
- red blood cells [3, 11]: 3.22
- red blood cells [3, 12]: 6.51
- plasma MDA: Variation between D − 5 and D + 21 ([4]; chemotherapy agent alone): +48%
- plasma MDA [4, 11]: 79.10
- plasma MDA [4, 12]: 43.78
- plasmatic glutathione: Variation between D − 5 and D + 21 ([5]; chemotherapy agent alone): −10%
- effect on the level of plasma GSH (in words) [5, 14]: a little less distinct
- plasmatic glutathione [5, 11]: 23.81
- plasmatic glutathione [5, 12]: 26.39
- plasmatic creatinine: Variation between D − 5 and D + 21 ([6]; chemotherapy agent alone): +59%
- plasmatic creatinine [6, 8]: 7.25
- plasmatic creatinine [6, 11]: 10.14
- plasmatic creatinine [6, 12]: 6.38

SMILES: COc1cccc2c1C(=O)c1c(O)c3c(c(O)c1C2=O)C[C@@](O)(C(=O)CO)C[C@@H]3O[C@H]1C[C@H](N)[C@@H](O)[C@H](C)O1 [Epirubicin, epirubicin]
- weight of the animals ([1]; rat, in vivo): 150.2
- weight: Variation between D + 1 and D + 21 ([1]; rat, in vivo): −0.9
- white blood cells ([2]; rat, in vivo): 6.79
- white blood cells: Variation between D − 5 and D + 21 ([2]; rat, in vivo): −46%
- red blood cells ([3]; rat, in vivo): 6.73 10^6/µL
- red blood cells: Variation between D + 1 and D + 21 ([3]; rat, in vivo): −48%
- reduction in red blood cells ([3]; rat, in vivo): 48%
- plasma MDA ([4]; rat, in vivo): 46.61
- plasma MDA: Variation between D − 5 and D + 21 ([4]; rat, in vivo): +83%
- effect on the level of plasma GSH (in words) ([5]; rat, in vivo): very distinct significant decrease in the level of plasma GSH
- plasmatic glutathione ([5]; rat, in vivo): 23.86
- plasmatic glutathione: Variation between D − 5 and D + 21 ([5]; rat, in vivo): −46%
- plasmatic creatinine: Variation between D − 5 and D + 21 ([6]; rat, in vivo): +60%

SMILES: O=c1[nH]cc(F)c(=O)[nH]1 [Powder 5-FU, 5-FU]
- weight: Variation between D + 1 and D + 21 ([1]; chemotherapy agent alone): −13.9
- weight of the animals [1, 8]: 157.6
- weight of the animals [1, 9]: 153.7
- weight of the animals [1, 10]: 147.9
- weight of the animals [1, 11]: 143.7
- weight of the animals [1, 12]: 153.5
- white blood cells: Variation between D − 5 and D + 21 ([2]; chemotherapy agent alone): −40%
- white blood cells [2, 8]: 3.91
- white blood cells [2, 9]: 2.74
- white blood cells [2, 10]: 10.82
- white blood cells [2, 11]: 3.86
- white blood cells [2, 12]: 6.49
- red blood cells: Variation between D + 1 and D + 21 ([3]; chemotherapy agent alone): −55%
- reduction in red blood cells [3, 13]: 55%
- red blood cells [3, 8]: 6.56
- red blood cells [3, 9]: 4.19
- red blood cells [3, 10]: 3.05
- red blood cells [3, 11]: 2.94
- red blood cells [3, 12]: 6.51
- plasma MDA: Variation between D − 5 and D + 21 ([4]; chemotherapy agent alone): +41%
- plasma MDA [4, 11]: 62.85
- plasma MDA [4, 12]: 44.49
- plasmatic glutathione: Variation between D − 5 and D + 21 ([5]; chemotherapy agent alone): −20%
- effect on the level of plasma GSH (in words) [5, 14]: very distinct significant decrease in the level of plasma GSH
- plasmatic glutathione [5, 11]: 17.65
- plasmatic glutathione [5, 12]: 22.14
- plasmatic creatinine: Variation between D − 5 and D + 21 ([6]; chemotherapy agent alone): +41%
- plasmatic creatinine [6, 8]: 9
- plasmatic creatinine [6, 11]: 10.19
- plasmatic creatinine [6, 12]: 7.25

SMILES: CC/C(=C(\c1ccccc1)c1ccc(OCCN(C)C)cc1)c1ccccc1 [Tamoxifen, tamoxifen]
- cytolysis of hepatocytes (in words) [7]: dose-dependent cytolysis of hepatocytes

SMILES: CC(=O)O[C@@]12CO[C@@H]1C[C@H](O)[C@@]1(C)C(=O)[C@H](O)C3=C(C)[C@@H](OC(=O)[C@H](O)[C@@H](NC(=O)OC(C)(C)C)c4ccccc4)C[C@@](O)([C@@H](OC(=O)c4ccccc4)[C@H]21)C3(C)C [Taxotere, taxotere]
- weight of the animals ([1]; rat, in vivo): 151.6
- weight: Variation between D + 1 and D + 21 ([1]; rat, in vivo): +18.6
- white blood cells ([2]; rat, in vivo): 6.44
- white blood cells: Variation between D − 5 and D + 21 ([2]; rat, in vivo): −51%
- red blood cells ([3]; rat, in vivo): 6.39 10^6/µL
- red blood cells: Variation between D + 1 and D + 21 ([3]; rat, in vivo): −52%
- reduction in red blood cells ([3]; rat, in vivo): 52%
- plasma MDA ([4]; rat, in vivo): 45.90
- plasma MDA: Variation between D − 5 and D + 21 ([4]; rat, in vivo): +88%
- effect on the level of plasma GSH (in words) ([5]; rat, in vivo): very distinct significant decrease in the level of plasma GSH
- plasmatic glutathione ([5]; rat, in vivo): 22.88
- plasmatic glutathione: Variation between D − 5 and D + 21 ([5]; rat, in vivo): −26%
- plasmatic creatinine ([6]; rat, in vivo): 7.60
- plasmatic creatinine: Variation between D − 5 and D + 21 ([6]; rat, in vivo): +52%
